The test system of data set [1] is HepG2 human hepatoma cells. Description: Hepatotoxicity assay: mitochondrial membrane potential (JC-1 probe). Conditions: 100 μM, 24 h treatment. It counts as cell-based. The protocol:
(§1) Given that drug-induced liver injury (DILI) is the leading cause of the termination of potential drug candidates,[21],[22] two of the main molecules 9 and 23 were further assayed in HepG2 human hepatoma cells to assess their potential risk of toxicity.[23] The hepatotoxicity of the compounds tested was evaluated using two methods: cell viability (Figure 8A,B) and mitochondrial membrane potential assay (Figure 8C).
(§2) Figure 8 Hepatotoxicity assays for selected lead molecules. Cell viability (A) was measured using the PrestoBlue reagent, cell membrane damage (B) was assessed using the ToxiLight bioassay, and mitochondrial membrane potential (C) was assessed using a JC-1 probe. Assays performed after 24 h treatment with tested compounds and a reference alpidem. Results are presented as mean % of untreated controls ± S.D. (n = 3). Differences among groups were evaluated by one-way ANOVA followed by post-hoc analysis (Dunnett’s multiple comparison tests) and were considered statistically significant if p < 0.05 (****p < 0.0001, ***p < 0.001, **p < 0.01, and *p < 0.05). […]
(§3) Cell viability was measured using the PrestoBlue reagent (Thermo Fisher). […] Metabolically active cells are capable of reducing the PrestoBlue reagent, with the colorimetric changes used as an indicator to quantify the viability of cells in culture. This change can be determined by measuring the fluorescence. […] After 30 min of incubation at 37 °C, the fluorescence intensity (EX 530; EM 580 nm) was measured by using a multifunction plate reader (POLARstar Omega, BMG Labtech, Germany). Viability values were calculated as a percentage of live cells with respect to the control sample. Cell membrane damage was measured using the bioluminescent ToxiLight bioassay (Lonza). It quantitatively measures the release of adenylate kinase (AK) from the membranes of damaged cells. […] The enzyme actively phosphorylates ADP, and the resultant ATP is then measured using the bioluminescent firefly luciferase reaction with the ToxiLight reagent. […]

The nature of data set [2]: Thermodynamic solubility in phosphate buffer pH = 7.4. In kind it is physicochemical. As to conditions: phosphate buffer (Dulbecco's phosphate-buffered saline), aqueous buffer, thermodynamic from solid, phosphate buffer pH = 7.4, 20 °C.
Description: Quantitative HPLC analyses were performed on a Waters Alliance e2695 Separations Module (Waters, Milford, CT, USA) with a detector 2998 Photodiode Array (PDA) detector (Waters, Milford, CT, USA) and the Chromolithe SpeedROD RP-18e 50–4.6 mm column (Merck, KGaA, Darmstadt, Germany). The column was kept at 30 °C. The conditions applied are as follows: eluent A (water/0.1% formic acid), eluent B (MeCN/0.1% formic acid), a flow rate of ,5 mL/min, a gradient of 0–100% B over 3 min, and an injection volume of 10 μL. Each sample was injected in triplicate. […] Standard solutions of the tested compounds and the reference compound were prepared in methanol at a concentration of 1 mg/mL. […] Next, 2 mg of the compound tested was dissolved in 1 mL of Dulbecco’s phosphate-buffered saline (DPBS), and the mixture was constantly agitated at 20 °C for 24 h in a thermoshaker. After that time, the mixtures were filtered through a cellulose acetate syringe filter (pore size 0.22 μm) and transferred to a chromatographic vial and analyzed using HPLC. For quantification, areas under the peaks of the investigated compounds on DAD chromatograms were used. Solubility was determined using the calibration curves.
Another data set can be described thus: in vitro. As to conditions: human; for remaining at 2 h, 50 μM: % remaining (parent compound). Here is the method:
Given that our goal was to obtain metabolically stable scaffolds, we selected 9 and 23 as representatives of each series for metabolic stability studies using human liver microsomes (HLMs). In parallel, we interrogated the quality of 1H-benzo[d]imidazole derivatives by confronting them head-to-head with the comparator drug alpidem.
The in vitro evaluation of the metabolic stability of the selected compound was performed using human liver microsomes (HLMs) (Sigma-Aldrich, St. Louis, MO, USA) as described previously.[25] The reaction mixture contained 50 μM of tested molecules HLMs (1 mg/mL) in 10 mM tris–HCl buffer. Following 5 min of preincubation, 50 μL of the NADPH Regeneration System (Promega, Madison, WI, USA) was added to induce the reaction. Next, the resulting reaction mixture was incubated at 37 °C for 120 min. The reaction was quenched with the addition of 200 μL of cold extra pure methanol and then centrifuged at 14,000 rpm for 15 min. The resulting supernatant was analyzed using an LC/MS Waters ACQUITY TQD system (Waters, Milford, USA).

In data set [3] the target is GABA-A receptor (benzodiazepine site, α1/γ2 interface). Description: Radioligand binding assay for the GABA-A receptor ([3H]-flunitrazepam displacement, rat brain homogenate). As to conditions: pKi = -log Ki, n.a. = no affinity.
Data set [4] deals with HepG2 human hepatoma cells. As to the kind of experiment: Hepatotoxicity assay: cell viability (PrestoBlue) and cell membrane damage (ToxiLight). Conditions: 24 h treatment; for cytotoxic effect in HepG2 cells: concentrations up to 50 μM. In kind it is cell-based. The protocol:
as §1, §2, §3

In data set [5] the target is T1, α1β2γ2-GABA-A receptors stably expressed in HEK293 cells (Homo sapiens, UniProt P14867+P18507).
T1 construct: expressed in transfected cells
T1 sequence (P14867 28-456): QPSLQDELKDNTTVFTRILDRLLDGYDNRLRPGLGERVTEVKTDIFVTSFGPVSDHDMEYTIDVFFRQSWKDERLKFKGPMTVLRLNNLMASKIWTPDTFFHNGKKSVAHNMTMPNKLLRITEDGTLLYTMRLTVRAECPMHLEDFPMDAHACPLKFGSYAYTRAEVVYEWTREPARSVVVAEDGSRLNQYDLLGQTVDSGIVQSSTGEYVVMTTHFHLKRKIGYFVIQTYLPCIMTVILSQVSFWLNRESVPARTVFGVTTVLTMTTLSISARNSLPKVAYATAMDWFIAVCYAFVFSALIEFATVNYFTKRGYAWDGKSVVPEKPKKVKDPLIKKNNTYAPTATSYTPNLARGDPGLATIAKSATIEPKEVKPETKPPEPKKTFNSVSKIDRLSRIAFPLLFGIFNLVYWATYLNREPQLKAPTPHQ
T1 sequence (P47870 25-512 partner limits assumed): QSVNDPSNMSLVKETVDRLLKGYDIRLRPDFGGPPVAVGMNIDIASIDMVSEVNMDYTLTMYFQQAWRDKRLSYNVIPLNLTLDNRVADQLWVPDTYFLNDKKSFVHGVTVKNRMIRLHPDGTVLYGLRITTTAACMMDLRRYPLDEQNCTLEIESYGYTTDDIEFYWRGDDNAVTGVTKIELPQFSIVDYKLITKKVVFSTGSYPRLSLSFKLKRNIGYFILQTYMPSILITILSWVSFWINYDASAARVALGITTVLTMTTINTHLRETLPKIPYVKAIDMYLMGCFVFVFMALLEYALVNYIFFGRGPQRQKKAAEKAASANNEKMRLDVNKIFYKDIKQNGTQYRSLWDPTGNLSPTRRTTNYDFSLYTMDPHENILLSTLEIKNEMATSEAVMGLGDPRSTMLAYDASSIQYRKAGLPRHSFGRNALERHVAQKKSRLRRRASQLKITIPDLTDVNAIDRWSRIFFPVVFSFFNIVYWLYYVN
T1 sequence (P18507 40-475): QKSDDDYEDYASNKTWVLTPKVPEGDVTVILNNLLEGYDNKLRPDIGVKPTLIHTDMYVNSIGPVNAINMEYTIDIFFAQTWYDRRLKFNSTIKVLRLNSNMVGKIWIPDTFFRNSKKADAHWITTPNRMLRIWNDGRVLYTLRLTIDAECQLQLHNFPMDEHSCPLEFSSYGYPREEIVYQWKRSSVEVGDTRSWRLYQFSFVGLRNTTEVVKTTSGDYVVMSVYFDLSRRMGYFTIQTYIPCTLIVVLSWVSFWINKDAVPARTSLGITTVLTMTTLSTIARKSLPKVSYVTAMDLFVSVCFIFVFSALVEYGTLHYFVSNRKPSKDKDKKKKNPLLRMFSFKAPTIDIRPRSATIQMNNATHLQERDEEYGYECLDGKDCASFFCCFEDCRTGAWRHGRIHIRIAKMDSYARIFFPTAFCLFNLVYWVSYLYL
Description: Electrophysiological studies, automated patch clamp (QPatch16X), positive allosteric modulation of GABA-induced Cl- currents. In kind it is cell-based. Conditions: compound 1 μM co-applied with 10 μM GABA; GABA alone = 100%; mean ± SEM. Here is the method:
Given that ligands binding within the α1/γ2 interface act as PAMs, we selected the most promising 1H-benzo[d]imidazoles (9, 15, 16, 23, and 29) for electrophysiological studies using automated patch clamp recordings (QPatch16X, Sophion). We expected that 1H-benzo[d]imidazoles would potentiate GABA-induced Cl^– currents rather than inducing ion passage alone.
Electrophysiology studies were performed using the QPatch16X automatic patch clamp platform (Sophion Biosciences) and HEK293 cells, stably expressing the α1β2γ2 subunits of the human GABA-A receptor. Prior to the assay recordings, the cells were transferred from the culture flask through a TrypLE Express solution (LifeTechnologies) and resuspended in serum-free media. The cells were placed in the lidless microtube, located onboard the automated electrophysiology instrument. The cells were then automatically relocated to a built-in centrifuge, spun down, and washed in Ringer’s extracellular solution. The cells were transferred to the pipetting wells of a single-use 16-channel planar patch chip plate (QPlate 16X), and gigaseals were formed upon implementation of a combined suction/voltage protocol. Subsequent suction induced whole-cell configuration. The chloride currents passed via the GABA-A receptor were recorded for 7 s after single addition of a tested molecule. Through whole-cell recording, the holding potential was set to −90 mV. The assay was performed at room temperature. The extracellular solution was composed of the following ingredients: consisted of 2 mM […], 145 mM NaCl, 10 mM HEPES, CaCl2, 1 mM MgCl2, 10 mM glucose (pH 7.4, 300 mOsm), and intracellular solution contained 140 mM CsF, 1 mM EGTA, 5 mM CsOH, 10 mM HEPES, and 20 mMNaCl (pH 7.2, 320 mOsm). The screening assays were established in the instrument software by sequential application of 10 μM GABA (reference agonist AG1), 1 μM examined molecule compounds, and compounds co-administered with 10 μM GABA (T2); second addition of 10 μM GABA (AG2); 10 μM bicuculline (reference antagonist) along with 10 μM GABA (ATG). The intermission among the addition of particular molecules was 60 s. In a typical procedure, 5 μL of ligand was added to the cells, followed by 3 s of washout with an extracellular solution (two times […]). For the allosteric modulator/antagonist mode, the cells were preincubated with the tested compound alone for 50 s, followed by the addition of the reference agonist. The data obtained were processed using QPatch Assay Software (v5.0, Sophion Biosciences) and are represented as the mean of at least three independent experiments performed on separate cells. The validation criteria for a single test were current amplitude evoked by adding GABA greater than 500 pA and a change between cells’ response to GABA applications (AG1 and AG2) not greater than 25%. The relative compound efficiency was analyzed as the baseline-corrected ratio of maximal current amplitudes induced by the addition of tested compounds and reference agonist (T1-ATG/AG1-ATG or T2-ATG/AG1-ATG). The obtained raw current recordings were normalized and represented as % of the current amplitude induced by a reference agonist (GABA = 100%) using the QPatch Assay Software (v5.0, Sophion Biosciences).[24]

Structures are written as SMILES. Values after ≈ are worked out from the molar mass of the structure shown.

Turning to `Cc1ccc2nc(-c3ccc(F)cc3)n(CC(=O)N3CCCC3)c2c1` [Compound 9, 2-(2-(4-Fluorophenyl)-6-methyl-1H-benzo[d]imidazole-1-yl)-1-(pyrrolidin-1-yl)ethan-1-one], the “mitochondrial membrane potential (MMP) of HepG2 cells” value (from here on “mitochondrial membrane potential”) in data set [1] was “did not observe mitochondrial membrane potential (MMP) attenuation”. The solubility (usually the dissolved amount per volume that the medium holds) at 24 h in data set [2] is 50 ± 0.54 µg/mL (≈ 148 µM). In the data set “in vitro” (microsomes, 2 h, 50 μM), the “% remaining (parent compound)” value was 90.12%. The share remaining – broadly, the share of the starting amount still present when the sample was taken – at 2 h, 50 μM in “in vitro” (microsomes) came out at 90%. Moreover, the “pKi GABA-A” value in data set [3] was 5.5. In addition, the “cytotoxic effect in HepG2 cells” value in data set [4] is “did not induce any significant cytotoxic effect”. Besides, the “% of 10 μM GABA response” value in data set [5] is recorded as 172 ± 12,5%.
For the compound `NC(=O)c1cccc(NC(=O)Cn2c(-c3ccc(F)cc3)nc3ccccc32)c1` [Compound 23, 3-(2-(2-(4-Fluorophenyl)-1H-benzo[d]imidazole-1-yl)acetamido)benzamide], in data set [1], the “mitochondrial membrane potential” value is given as “did not observe mitochondrial membrane potential (MMP) attenuation”. In data set [2], this compound displayed a solubility at 24 h of 74 ± 0.81 µg/mL (≈ 191 µM). Also, the “formation of hydroxylated metabolite (M1)” value in the data set “in vitro” (120 min, 50 μM) is given as 10.87%. Also, the amount remaining at 2 h, 50 μM in “in vitro” (microsomes) came to 89.1%. For the same compound, in data set [3], the “pKi GABA-A” value was 6.05. Also, the “cytotoxic effect in HepG2 cells” value in data set [4] is recorded as “did not induce any significant cytotoxic effect”. Further, the “% of 10 μM GABA response” value in data set [5] is given as 132 ± 13,2%.
Consider `CCCN(CCC)C(=O)Cc1c(-c2ccc(Cl)cc2)nc2ccc(Cl)cn12` [alpidem, reference compound], for which, in data set [1], the “mitochondrial membrane potential” value is “induced mitochondrial dysfunction”. Also, in the data set “in vitro” (microsomes), the fraction remaining at 2 h, 50 μM was 38.6%. Besides, in data set [4] (at 100 and 50 μM), the “hepatotoxicity in HepG2 cells” value is on record as “noticeable hepatotoxicity”.

The record behind these values is article PMC10020958, “2-(4-Fluorophenyl)-1H-benzo[d]imidazole as a Promising Template for the Development of Metabolically Robust, α1β2γ2GABA-A Receptor-Positive Allosteric Modulators” (ACS Chemical Neuroscience, 2023).
